In the experiment the test system is alopecia areata. In words: Efficacy and safety of upadacitinib in AD patients with concomitant alopecia areata (SALT, AA-IGA). Format: in vivo, human.

Source text: According to data reported in the patient clinical report forms by each investigator, all AD patients who were concomitantly suffering from alopecia areata at the baseline visit were identified. Medical records included demographic characteristics such as age, sex, occupation, smoking habits (smoker, former smoker, or non-smoker), AD history and severity, alopecia areata history and severity, prior treatments, atopic and non-atopic comorbidities, serum IgE levels, and concomitant therapies.
Patients were evaluated at baseline, and follow-up visits were scheduled after 4 weeks from baseline, and every 12 weeks thereafter. At baseline and at each follow-up visit, AD severity was assessed by Eczema Area and Severity Index (EASI) together with other tools. To evaluate severity and treatment response of alopecia areata, Severity of Alopecia Tool (SALT) and Alopecia Areata-Investigator Global Assessment (AA-IGA) were performed, as commonly used in daily practice. […] The SALT change throughout the observation period was recorded as the difference between the baseline SALT score and the SALT score value calculated at each follow-up visit (A SALT).
Qualitative and quantitative variables were described as relative frequencies (%), mean and standard deviation (or medians and interquartile ranges [IR], as appropriate), respectively. […] Data are reported and analysed “as observed”. […]

For the compound `CC[C@@H]1CN(C(=O)NCC(F)(F)F)C[C@@H]1c1cnc2cnc3[nH]ccc3n12` [upadacitinib, (3S,4R)-3-ethyl-4-(3H-imidazo[1,2-a]pyrrolo[2,3-e]pyrazin-8-yl)-N-(2,2,2-trifluoroethyl)pyrrolidine-1-carboxamide], the “predicted SALT reduction for each 1-unit increase in the age of alopecia areata onset” value (multivariable regression, independent of baseline SALT and sex) is on record as 2.1 point. Moreover, under “upadacitinib 30 mg once daily, after 4 weeks of treatment”, the “patients with clinically meaningful hair regrowth (achievement of at least SALT 50 response)” value is listed as “about 16%”.

The values above are taken from US20250049789A1, “METHODS OF TREATING ALOPECIA ARAETA” (AbbVie Inc., priority 2023, published 2025).
